The text below walks through data of ChEMBL document CHEMBL5052844, “Heteroaryl amides useful as kif18a inhibitors” (2020).

The structures appear in SMILES notation.

The assay addresses T1, Kinesin-like protein KIF18A (Homo sapiens, UniProt Q8NI77).
T1 sequence (Q8NI77 whole entry): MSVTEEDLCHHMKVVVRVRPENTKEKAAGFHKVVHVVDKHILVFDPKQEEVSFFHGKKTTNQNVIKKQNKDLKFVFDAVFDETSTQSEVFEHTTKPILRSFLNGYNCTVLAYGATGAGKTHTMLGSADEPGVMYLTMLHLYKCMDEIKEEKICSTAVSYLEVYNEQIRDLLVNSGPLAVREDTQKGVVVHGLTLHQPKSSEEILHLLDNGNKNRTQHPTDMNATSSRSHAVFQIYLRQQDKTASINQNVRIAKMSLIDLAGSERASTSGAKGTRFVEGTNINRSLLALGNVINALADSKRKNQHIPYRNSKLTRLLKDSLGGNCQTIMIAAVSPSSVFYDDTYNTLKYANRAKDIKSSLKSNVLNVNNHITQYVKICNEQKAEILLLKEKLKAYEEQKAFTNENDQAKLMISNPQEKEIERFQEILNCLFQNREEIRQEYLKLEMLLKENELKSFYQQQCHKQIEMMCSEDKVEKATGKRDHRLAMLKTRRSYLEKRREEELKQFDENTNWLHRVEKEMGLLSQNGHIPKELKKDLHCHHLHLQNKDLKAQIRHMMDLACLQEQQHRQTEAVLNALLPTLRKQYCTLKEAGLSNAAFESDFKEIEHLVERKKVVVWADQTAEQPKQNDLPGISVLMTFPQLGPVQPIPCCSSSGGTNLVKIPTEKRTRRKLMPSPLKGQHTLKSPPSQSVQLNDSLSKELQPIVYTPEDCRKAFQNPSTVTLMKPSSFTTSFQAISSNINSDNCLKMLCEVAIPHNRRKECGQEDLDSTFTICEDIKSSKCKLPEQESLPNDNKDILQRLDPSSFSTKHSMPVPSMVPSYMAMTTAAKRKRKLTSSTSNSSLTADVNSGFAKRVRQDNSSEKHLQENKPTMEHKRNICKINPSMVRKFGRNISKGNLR
The assay can be described thus: Inhibition of recombinant His-tagged human KIF18A (1 to 467 residues) expressed in baculovirus expression system assessed as inhibition of microtubule-stimulated ATPase activity preincubated for 15 mins followed by ATP addition and further incubated for 15 mins and measured after 40 mins by ADP-Glo reagent based assay. Background: ADP-Glo first removes unused ATP, then detects ADP through luciferase.

Usually IC50 stands for the concentration that gives 50% inhibition. `Cc1cc(NC(=O)c2cnc(S(=O)(=O)C3CC3)cc2N2CCC3(CC2)CC3)nc(N2CCC(F)(F)CC2)n1`: the IC50 was found to be 48 nM.
